The source of these data is US10308637B2 (LifeSci Pharmaceuticals, Inc., priority 2015, dated 2019).

Where only a bound is given, the exact number is not on record here.

The nature of this test: Contact Assay (percentage inhibition from fluorescence intensity). The format is biochemical. As for the experimental part: The percentage inhibition was calculated using the following equation:
[formula] where, Mean(BG) is the average value of the fluorescence intensity of the background wells and Mean(PC) is the average value of the fluorescence intensity of the positive control wells.
Table 4 provides the EC50 values of various compounds disclosed herein.
A word on the EC50: it is the concentration that produces a half-maximal response. Read a high EC50 as weaker potency. `Cc1cc(N)nc(C)c1CNC(=O)c1ccnc(Cc2cc(C(=O)O)c3ncc(Cl)cc3c2)c1` [Example 93, 6-((4-(((6-amino-2,4-dimethylpyridin-3-yl)methyl)carbamoyl)pyridin-2-yl)methyl)-3-chloroquinoline-8-carboxylic acid] came in with a 50% effective concentration (EC50) of no more than 100 nM.
In the case of `Cc1nc(N)ccc1CNC(=O)c1ccnc(Cc2cc(CO)c3ncc(Cl)cc3c2)c1` [Example 97, N-((6-amino-2-methylpyridin-3-yl)methyl)-2-((3-chloro-8-(hydroxymethyl)quinolin-6-yl)methyl)isonicotinamide] it was no more than 100 nM; in that of `Cc1cc(N)nc(C)c1CNC(=O)c1ccnc(Cc2ccc3c(cc(Cl)c[n+]3[O-])c2)c1` [Example 99, 6-((4-(((6-amino-2,4-dimethylpyridin-3-yl)methyl)carbamoyl)pyridin-2-yl)methyl)-3-chloroquinoline 1-oxide], no more than 100 nM.
Next, `Cc1cc(N)nc(C)c1CNC(=O)c1ccnc(Cc2cc(Cl)c3ncc(Cl)cc3c2)c1` [Example 100, N-((6-amino-2,4-dimethylpyridin-3-yl)methyl)-2-((3,8-dichloroquinolin-6-yl)methyl)isonicotinamide]: no more than 100 nM.
For `Cc1nc(N)ccc1CNC(=O)c1ccnc(Cc2cc(Cl)c3ncc(Cl)cc3c2)c1` [Example 101, N-((6-amino-2-methylpyridin-3-yl)methyl)-2-((3,8-dichloroquinolin-6-yl)methyl)isonicotinamide], the concentration giving a half-maximal response (EC50) was no more than 100 nM.
Next, `Cc1cc(N)nc(C)c1CNC(=O)c1ccnc(Cc2ccc3ncc(Cl)cc3c2F)c1` [Example 102, N-((6-amino-2,4-dimethylpyridin-3-yl)methyl)-2-((3-chloro-5-fluoroquinolin-6-yl)methyl)isonicotinamide]: 100 to 1000 nM; `Cc1cc(C(=O)NCc2c(C)cc(N)nc2C)cc(Cc2ccc3ncc(Cl)cc3c2)n1` [Example 104, N-((6-amino-2,4-dimethylpyridin-3-yl)methyl)-2-((3-chloroquinolin-6-yl)methyl)-6-methylisonicotinamide]: no more than 100 nM.
In the case of `Cc1ccc2cc(Cc3cc(C(=O)NCc4c(C)cc(N)nc4C)ccn3)ccc2n1` [Example 113, N-((6-amino-2,4-dimethylpyridin-3-yl)methyl)-2-((2-methylquinolin-6-yl)methyl)isonicotinamide] it was no more than 100 nM; in that of `Cc1ccc2ncc(Cc3cc(C(=O)NCc4c(C)cc(N)nc4C)ccn3)cc2c1` [Example 114, N-((6-amino-2,4-dimethylpyridin-3-yl)methyl)-2-((6-methylquinolin-3-yl)methyl)isonicotinamide], no more than 100 nM; in that of `Cc1ccc2ncc(Cc3cc(C(=O)NCc4ccc5c(N)nccc5c4)ccn3)cc2c1` [Example 115, N-((1-aminoisoquinolin-6-yl)methyl)-2-((6-methylquinolin-3-yl)methyl)isonicotinamide], no more than 100 nM.
`Nc1nccc2cc(CNC(=O)c3ccnc(Cc4cnc5ccc(F)cc5c4)c3)ccc12` [Example 118, N-((1-aminoisoquinolin-6-yl)methyl)-2-((6-fluoroquinolin-3-yl)methyl)isonicotinamide] yielded an EC50 of no more than 100 nM.
Turning to `Cc1cnc2ccc(Cc3cc(C(=O)NCc4ccc5c(N)nccc5c4)ccn3)cc2c1` [Example 142, N-((1-aminoisoquinolin-6-yl)methyl)-2-((3-methylquinolin-6-yl)methyl)isonicotinamide], the EC50 is no more than 100 nM.
`Cc1cnc2ccc(Cc3cc(C(=O)NCc4c(C)cc(N)nc4C)ccn3)cc2c1` [Example 144, N-((6-amino-2,4-dimethylpyridin-3-yl)methyl)-2-((3-methylquinolin-6-yl)methyl)isonicotinamide] registered an EC50 of no more than 100 nM.
In the case of `Cc1cc2cc(Cc3cc(C(=O)NCc4c(C)cc(N)nc4C)ccn3)ccc2cn1` [Example 145, N-((6-amino-2,4-dimethylpyridin-3-yl)methyl)-2-((3-methylisoquinolin-6-yl)methyl)isonicotinamide] it was no more than 100 nM; in that of `Cc1cc(N)nc(C)c1CNC(=O)c1ccnc(Cc2cc3cc(Cl)cnc3cn2)c1` [Example 148, N-((6-amino-2,4-dimethylpyridin-3-yl)methyl)-2-((3-chloro-1,7-naphthyridin-6-yl)methyl)isonicotinamide], no more than 100 nM; in that of `Cc1nc(N)ccc1CNC(=O)c1ccnc(Cc2cc3cc(Cl)cnc3cn2)c1` [Example 149, N-((6-amino-2-methylpyridin-3-yl)methyl)-2-((3-chloro-1,7-naphthyridin-6-yl)methyl)isonicotinamide], no more than 100 nM.
Take `Cc1cc(N)nc(C)c1CNC(=O)c1ccnc(Cc2cnc3[nH]c(C(F)(F)F)cc3c2)c1` [Example 152, N-((6-amino-2,4-dimethylpyridin-3-yl)methyl)-2-((2-(trifluoromethyl)-1H-pyrrolo[2,3-b]pyridin-5-yl)methyl)isonicotinamide]: the EC50 fell in the range of 100 to 1000 nM.
For the compound `Cc1cc(N)nc(C)c1CNC(=O)c1ccnc(Cc2cc3cc(Cl)cn3cn2)c1` [Example 153, N-((6-amino-2,4-dimethylpyridin-3-yl)methyl)-2-((6-chloropyrrolo[1,2-c]pyrimidin-3-yl)methyl)isonicotinamide], the EC50 is no more than 100 nM.
In the case of `Cc1ccn2cnc(CNC(=O)c3ccnc(Cc4ccc5ncc(Cl)cc5c4)c3)c2c1` [Example 156, 2-((3-chloroquinolin-6-yl)methyl)-N-((7-methylimidazo [1,5-a]pyridin-1-yl)methyl)isonicotinamide] it was 100 to 1000 nM; in that of `Cc1cc(CN)nc(C)c1CNC(=O)c1ccnc(Cc2ccc3ncc(Cl)cc3c2)c1` [Example 171, N-((6-(aminomethyl)-2,4-dimethylpyridin-3-yl)methyl)-2-((3-chloroquinolin-6-yl)methyl)isonicotinamide], 100 to 1000 nM.
In the case of `Cc1cc(CN)nc(C)c1CNC(=O)c1ccnc(Cc2ccc3ncc(C(F)(F)F)cc3c2)c1` [Example 172, N-((6-(aminomethyl)-2,4-dimethylpyridin-3-yl)methyl)-2-((3-(trifluoromethyl)quinolin-6-yl)methyl)isonicotinamide] it was no more than 100 nM.
For `Cc1nc2c(c(C)c1CNC(=O)c1ccnc(Cc3ccc4ncc(C(F)(F)F)cc4c3)c1)CCN2` [Example 176, N-((4,6-dimethyl-2,3-dihydro-1H-pyrrolo[2,3-b]pyridin-5-yl)methyl)-2-((3-(trifluoromethyl)quinolin-6-yl)methyl)isonicotinamide], the EC50 was 100 to 1000 nM.
Next, `Cc1c(CNC(=O)c2ccnc(Cc3ccc4ncc(Cl)cc4c3)c2)ccc2c(N)nccc12` [Example 177, N-((1-amino-5-methylisoquinolin-6-yl)methyl)-2-((3-chloroquinolin-6-yl)methyl)isonicotinamide]: no more than 100 nM.
In the case of `Nc1nccc2c(F)c(CNC(=O)c3ccnc(Cc4ccc5ncc(Cl)cc5c4)c3)ccc12` [Example 178, N-((1-amino-5-fluoroisoquinolin-6-yl)methyl)-2-((3-chloroquinolin-6-yl)methyl)isonicotinamide] it was no more than 100 nM; in that of `Nc1nccc2cc(CNC(=O)c3ccnc(Cc4ccc5ncc(Cl)cc5c4)c3)ccc12` [Example 179, N-((1-aminoisoquinolin-6-yl)methyl)-2-((3-chloroquinolin-6-yl)methyl)isonicotinamide], no more than 100 nM.
